Data on seven compounds can be found in patent publication US10239893B2, “Controlling the isomerization rate of Azo-BF2 switches using aggregation” (THE TRUSTEES OF DARTMOUTH COLLEGE, priority 2013, dated 2019).

“And” between values parts separate entries of the source, which are not always exact repeats. Identical values can stand only once.

Data set [1] is described as follows: Reversibility of photoswitching over repeated irradiation cycles. It is filed as physicochemical. The settings on record: CH2Cl2, alternating visible light irradiation. From the text: The photoisomerization of Compound 1 was studied extensively by UV/vis (FIG. 1) spectroscopy. When stored in the dark, Compound 1 adopts its thermodynamically stable trans form that has an absorption maximum (λmax) at 530 nm (ε=8026 M^−1 cm^−1). Upon irradiation at 570 nm, the cis form (λmax=480 nm; £=7792 M^−1 cm^−1) becomes dominant, accompanied by a sharp color change of the solution from bright purple to light orange. The process is also accompanied by changes in the intensity of bands at higher energies (λmax=340 and 264 nm). Irradiation at 450 nm drives the system back to its trans form. […] The trans/cis isomerization can be activated solely by the use of visible light and there is no need for UV light.
The synthesis of the azo-BF2 complex 10 started from the hydrazone-based switch,^18 followed by the coupling reaction with BF3.OEt2^19 (Scheme 7). The product was fully characterized using NMR spectroscopy and mass spectrometry (FIGS. 62-76). […] Upon irradiation with a 600 nm light source, E to Z isomerization takes place (isosbestic points at 318, 406, and 508 nm) leading to a new band with a λmax at 501 nm, and e of 11209 M^−1·cm^−1 (FIGS. 58 and 81). The isomerization is accompanied with a significant color change of the solution from purple to dark orange (FIG. 58b).

A short description of data set [2]: Isomer ratios under dark and at photostationary states by 1H NMR. To be noted: for PSS isomer ratio, cis, irradiation at 710 nm (PSS710): lowest estimation because of fast thermal relaxation. It is filed as physicochemical. On the procedure: ^1H NMR spectroscopy was employed to evaluate the photo-switching efficiency of 10 in CD2Cl2 (0.53 mM).
[…] The LEDs were affixed in a custom irradiation chamber fitted with a cooling fan to maintain ambient temperature. The light intensities at 430 and 600 nm were determined using chemical actinometry^S1 and a Thorlabs optical power meter, respectively. Photoisomerization quantum yields were measured by monitoring the proton integral change in trans/cis isomers after 430 and 600 nm irradiation for 2 and 20 s, respectively. Each quantum yield measurement was repeated three times under the same conditions. The photostationary states (PSS) were determined upon continuous irradiation until no further isomerization was observed using ^1H NMR spectroscopy. PBS buffer is an aqueous solution prepared by dissolving Na2HPO4 (1.420 g), KH2PO4 (0.245 g) NaCl (8.007 g) and KCl (0.201 g) in 1 L deionized water.

Data set [3] can be described thus: Thermal cis→trans isomerization kinetics followed by UV/Vis in CH2Cl2. The settings on record: deoxygenated CH2Cl2, 294 K, starting from cis PSS, average of three measurements.
Experimental: The thermal isomerization process was monitored by measuring the change in absorption intensity at 480 nm as a function of time (at 1 min intervals).
The thermal isomerization process was monitored by measuring the change in absorption intensity at 594 nm as a function of time (at 1 min intervals).
A short description of data set [4]: Stability to reduction by glutathione, 10 mM GSH in acetonitrile:PBS buffer (1:1). It is filed as physicochemical. To be noted: for degradation half-life with GSH: acetonitrile:PBS (1:1) with 10 mM GSH, 25° C. On the procedure:
(§1) The stability of the switches in an aqueous environment was tested by conducting multiple switching cycles (10 cycles shown in FIG. 22a) of 4 in an acetonitrile:PBS buffer (1:1) mixed solvent system. These experiments were conducted by irradiating the sample using 710 nm light, followed by thermal relaxation under dark. […] The stability of switch 4 to reduction by glutathione (GSH) was also tested. The switch was incubated in 10 mM reduced glutathione in acetonitrile:PBS buffer (1:1) solution.

A short description of data set [5]: Stability (hydrolysis) in acetonitrile:PBS buffer (1:1), followed by UV-Vis. It is filed as physicochemical. The settings on record: acetonitrile:PBS (1:1), 25° C. On the procedure: as §1
All reagents and starting materials were purchased from commercial vendors and used without further purification. Column chromatography was performed on silica gel (Silicycle, 230-400 mesh). The melting points were measured on an Electrothermal 9100 instrument in open capillary tubes without thermometer correction. Deuterated solvents were purchased from Cambridge Isotope Laboratories and used as received. ^1H NMR and ^13C NMR spectra were recorded on a 500 MHz spectrometer, with working frequencies of 499.87 MHz for ^1H nuclei and 125.7 MHz for ^13C nuclei, respectively. ^19F NMR spectra were recorded on a 300 MHz spectrometer, with working frequency of 282.2 MHz for ^19F nuclei. Chemical shifts are expressed in ppm relative to tetramethylsilane, using the residual solvent peak as a reference standard. GC-MS spectra were measured on a Shimadzu Gas Chromatograph/Mass Spectrometer (GCMS-QP2010Plus). UV-Vis spectra were recorded on a Shimadzu UV-Vis spectrophotometer (UV-1800). Irradiation experiments were conducted with sufficient stirring using a Newport mercury lamp (67005-414) equipped with a Jarrell-Ash light monochromator. The 710 nm Near IR light source was built with appropriate LED light bulbs (LED710-lau AlGaAs Infrared LEDs purchased from Roithner Lasertechnik GmbH). PBS buffer is an aqueous solution prepared with 11.9 mM sodium phosphate (pH 7.3-7.4), 137 mM NaCl and 2.7 mM KCl.

Data set [6] is described as follows: Thermal cis→trans relaxation followed by 1H NMR in CD2Cl2. It is filed as physicochemical. The settings on record: CD2Cl2 at 294 K, starting from PSS710. The source says:
Unaltered CD2Cl2 solution of compound 4 in a quartz NMR tube was irradiated at 710 nm until its photostationary state was reached.

As for `N#CC1=C2C=Cc3ccccc3N2[B-](F)(F)[N+]1=Nc1ccccc1` [Compound 1], in data set [1], the “reversibility / degradation on repeated photoisomerization (in words)” value is recorded as “no degradation”.
`COc1ccc(N=[N+]2C(C#N)=C3C=Cc4ccccc4N3[B-]2(F)F)cc1` [Compound 2]: in data set [2], the “trans isomer ratio under dark” value came out at 93%. Besides, in data set [2] (CD2Cl2 at 294 K), the “PSS isomer ratio, cis, irradiation at 630 nm (PSS630)” value was 96% and 96±1%; the “PSS isomer ratio, trans, irradiation at 490 nm (PSS490)” value is 92% and 92±1%.
`COc1ccc(N=[N+]2C(C#N)=C3C=Cc4ccccc4N3[B-]2(F)F)c(OC)c1` [Compound 3]: the “trans isomer ratio under dark” value in data set [2] is recorded as 58%. In addition, in data set [2] (CD2Cl2 at 294 K), the “PSS isomer ratio, cis, irradiation at 640 nm (PSS640)” value is 79% and 79±1%; the “PSS isomer ratio, trans, irradiation at 490 nm (PSS490)” value is 56% and 56±1%. In data set [3], the “half-life (t1/2) of the cis→trans isomerization” value is given as 13.4 h.
For `CN(C)c1ccc(N=[N+]2C(C#N)=C3C=Cc4ccccc4N3[B-]2(F)F)cc1` [Compound 4], the “stability to reduction by glutathione (in words)” value in data set [4] (10 mM reduced glutathione in acetonitrile:PBS buffer (1:1)) is listed as “No obvious difference was observed in its degradation half-life”. Also, the “degradation half-life with GSH” value in data set [4] worked out at 2.5 h. Also, the “degradation (hydrolysis) half-life” value in data set [5] was 2.3 h. For the same compound, the “trans isomer ratio under dark” value in data set [2] is 97%. Moreover, the “PSS isomer ratio, cis, irradiation at 710 nm (PSS710)” value (shortened to “PSS isomer ratio, cis … (PSS710)”) in data set [2] (CD2Cl2 at 294 K) is 63% and 63±1%. The “Half-life, cis→trans thermal relaxation” value in data set [6] is 0.0694 h.
Consider `N#CC1=C2C=Cc3ccccc3N2[B-](F)(F)[N+]1=Nc1ccc(N2CCCCC2)cc1` [Compound 5], for which the “degradation half-life with GSH” value in data set [4] is recorded as 2.1 h. In addition, the “degradation (hydrolysis) half-life” value in data set [5] turned out to be 2 h. The “trans isomer ratio under dark” value in data set [2] amounted to 98%. Further, the “Half-life, cis→trans thermal relaxation” value in data set [6] was 0.0417 h.
Take `CN1CCN(c2ccc(N=[N+]3C(C#N)=C4C=Cc5ccccc5N4[B-]3(F)F)cc2)CC1` [Compound 6]: the “degradation half-life with GSH” value in data set [4] came out at 1.3 h. Further, the “degradation (hydrolysis) half-life” value in data set [5] amounted to 1.2 h. Besides, in data set [2], the “trans isomer ratio under dark” value is on record as 94%. Moreover, the “PSS isomer ratio, cis … (PSS710)” value in data set [2] (CD2Cl2 at 294 K) was 49% and 49±1%. Moreover, the “Half-life, cis→trans thermal relaxation” value in data set [6] was determined as 0.111 h.
On to `N#CC1=C2C=Cc3ccccc3N2[B-](F)(F)[N+]1=Nc1ccc(N2CCOCC2)cc1` [Compound 7], for which the “degradation half-life with GSH” value in data set [4] was found to be 1.0 h. For the same compound, the “degradation (hydrolysis) half-life” value in data set [5] is on record as 0.9 h. Moreover, the “trans isomer ratio under dark” value in data set [2] was found to be 97%. Also, the “PSS isomer ratio, cis … (PSS710)” value in data set [2] (CD2Cl2 at 294 K) is 83% and 82±1%. The “Half-life, cis→trans thermal relaxation” value in data set [6] is 0.25 h.
